Measurements: patent publication US20250073209A1, “COVALENT TARGETING OF RhoA FOR CANCER THERAPY” (The University of Hong Kong, priority 2023, published 2025)

Experiments:
[1] = molecular target: Cdc42 (Homo sapiens, UniProt P60953); experiment: Gel-based competitive ABPP, second screening on Cdc42; format: binding
Method: Recombinant human RhoA (0.1 μg; ab101594) was pretreated with cysteine-reactive compounds or DMSO for 1 hour at room temperature, followed by incubation with iodoacetamide-rhodamine (IA-Rh; 1 μM) for 1 hour at room temperature. The reaction was then quenched by boiling in sampling buffer. Samples were subjected to SDS-PAGE to separate proteins bands. In-gel fluorescence intensity was measured with a Chemidoc using setting for Rhodamine. Gel was subsequently stained with silver stain (Pierce) for visualization of protein content and covalent modification. Band intensity was quantified using ImageJ.
CL16 was identified for its strong and specific binding with RhoA in covalent ligand screening experiment by ABPP. ABPP is known as a powerful platform for covalent ligand screening, particularly for the identification of lead compounds targeting new hotspots for therapy. Competitive gel-based activity-based protein profiling (ABPP) experiment was performed on purified RhoA protein for screening its interactions with a library of cysteine-reactive covalent ligands with acrylamide or chloroacetamide warheads. RhoA protein for the first screening and on Rac1 and Cdc42 for the second screening to identify lead compounds with specific binding onto RhoA Cys16. […] The reaction mixture was then resolved by SDS-PAGE and in-gel fluorescence was imaged (FIG. 1A). […]

[2] = test system: HT29 cells; experiment: Transwell (Matrigel) invasion assay; format: cell-based, human; conditions: HT29, 24 h

Cdc42, sequence (P60953 whole entry): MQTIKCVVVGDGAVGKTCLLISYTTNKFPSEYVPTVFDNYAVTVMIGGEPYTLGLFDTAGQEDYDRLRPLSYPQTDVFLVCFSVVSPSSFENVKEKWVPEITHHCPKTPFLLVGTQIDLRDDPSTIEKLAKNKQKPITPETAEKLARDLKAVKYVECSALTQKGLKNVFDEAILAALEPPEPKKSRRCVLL

binding with Cdc42 [1]: no observable binding
Compound: O=C(CCl)N1N=C(c2cc3ccccc3o2)CC1c1ccco1 (centres unmarked) [CL16]
cell invasion [2]: good efficacy in reducing HT29 cell migration and invasion
